Earlier results, collected in patent EP1190712A1 (SMB Technology, priority 2000, dated 2002).

Settings: human, in vivo

COc1cccc(C2(O)CCCCC2CN(C)C)c1 (stereo not shown) [Tramadol]
Cmax (time): 30 to 60 min
